Reference: paper PMC13334477 (RSC Medicinal Chemistry, 2026)
Where “and” joins values, the source holds several entries; their conditions need not be identical. Identical values can stand only once. Like-named read-outs stand apart in the source and are kept apart here.

How the values were obtained:
[1] = molecular target: DK100 DNA duplex; experiment: Native ESI-MS, DK100; type: binding; details: 10 μM DNA, 20 μM ligand, 100 mM ammonium acetate
Procedure: (§1) Oligonucleotides were purchased lyophilized and RP-cartridge purified from Eurogentec (Kanaka Eurogentec, Seraing, Belgium), then buffer exchanged with ammonium acetate (5 M; Sigma-Aldrich, Saint-Quentin-Fallavier, France) using Amicon Ultra (3 K cut-off; Merck Millipore, Cork, Ireland). The concentrations of the initial stock solutions of DNA/RNA (∼1 mM) were measured by UV absorbance at 260 nm. Sample solutions were prepared by diluting the appropriate volume of oligonucleotide stock solutions to reach 10 μM of DNA/RNA and 20 μM of ligand, in 100 mM ammonium acetate. The solutions were incubated for 16 h at 4 °C before analysis by mass spectrometry. […] These parameters ensured a good signal intensity without disrupting noncovalent complexes, which was verified using d[G4T4G4]2 as a control. The presented spectra of all DNA/RNA used in this work (Fig. 5, S9 and S10) result from 8 min accumulations. The abundance of each species, M, M + 1L, M + 2L and M + 3L complexes, where M is a monomer oligonucleotide and L is a ligand, was determined from their peak area signals (A), from the sum of the −4, −5 and −6 charge states for DNA and from the sum of the −5, −6 and −7 charge states for RNA, assuming that their response factors are equal. The molar concentrations were then calculated knowing the total amount of oligonucleotide [M]tot: [drawing 1] [drawing 2] [drawing 3] [drawing 4] The concentration of the free ligand, [L]free, was determined from its total concentration [L]tot:[L]free = [L]tot − [M + 1L] − 2[M + 2L] − 3[M + 3L]Apparent consecutive dissociation constants (Kd1, Kd2 and Kd3) were calculated by using the following equations: [drawing 5] [drawing 6] [drawing 7]
(§2) We further analysed the formation of the DBA/G4 complexes by native electrospray ionization mass spectrometry (ESI-MS). We initially attempted to analyze DBA binding to the primary G4 targets from HIV-1 (HIVpro1, HIVpro2, LTR4 and rLTR4 RNA). […] These sequences span the major G4 topological classes and provide a representative assessment of DBA binding across diverse G4 architectures. We also included two DNA duplex controls (DK100 and DK66) to evaluate binding selectivity. This ESI-MS approach enables direct determination of binding stoichiometry, quantification of each species in solution, and calculation of dissociation constants (Kd) from the relative abundances of free and bound forms.[88,97]
(§3) In the ESI-MS conditions, the rLTR4 G4 (10 μM) forms a dimeric structure. […] Among the six DNA and RNA tested here (Fig. 5B, S9 and S10) only rLTR4 presented 1 : 3 G4/DBA complexes. In all cases but one, the 1 : 1 stoichiometry represents the major species in solution while for rLTR4 it is the 1 : 2 (green). […] For TG4T tetramolecular G4 or G4T4G4 bimolecular G4 only 1 : 1 and 1 : 2 complexes were detected (Fig. S9A and S10A). […] The weakest binding was obtained for the G4T4G4 antiparallel G4 and Htel sequence with Kd1s ranging from 11 μM for to 500 μM (Table 2).

[2] = molecular target: TG4T DNA G4 (parallel); experiment: Native ESI-MS, TG4T; type: binding; details: 10 μM DNA, 20 μM ligand, 100 mM ammonium acetate
Procedure: as §1, §2, §3

[3] = tested on: HeLa P4 cells; experiment: Cell viability assay (CellTiter 96 AQueous One); type: cell-based; details: read-out: EC50 (cell viability)
[4] = tested on: HIVpro2-FT (hybrid DNA G4); experiment: FRET melting assay, HIVpro2-FT; type: binding, HIV-1; details: ligand 1 μM, DNA 0.2 μM
Procedure: (§4) Doubly labelled oligonucleotides with fluorescein and TAMRA were purchased lyophilized and RP-cartridge purified from Eurogentec (Kanaka Eurogentec, Seraing, Belgium). FRET melting experiments were run on Stratagene Mx3005P real-time PCR equipment in 96-well plates on the DNA sequences listed Table 1. Experiments were performed in 10 mM lithium cacodylate buffer (pH 7.2) and 10 mM KCl and 90 mM LiCl as previously described.[45,46] The DNA concentration was 0.2 μM. The stabilization (ΔT1/2) induced by compounds was calculated as the difference between the Tm of the nucleic acid alone and that measured with a ligand concentration of 1 μM. Data are presented as averages of three independent measurements, each conducted in duplicate (λexc = 492 nm, λem = 516 nm, T interval = 25–95 °C, ramp: 25 °C for 5 min, then 1 °C min^−1, measurements every 1 °C, 8× magnification of the fluorescence signal). The G4 selectivity of the ligands with respect to the duplex was evaluated by determining the Tm values in the presence of 0, 3 or 10 μM of the duplex competitor ds26.
(§5) In this assay, we performed thermal denaturation experiments by heating and recording the fluorescence of DNA oligonucleotides doubly labelled with fluorescein and TAMRA fluorophores (Fig. 3 and S7). Ligand binding to the G4 stabilises the structure, resulting in an increase in the half-dissociation temperature of the structure (ΔT1/2). As a first approximation, the higher the ΔT1/2 (ΔT1/2 higher), the higher the affinity of the ligand for the target.[45]
(§6) The fluorescently labeled oligonucleotides were dissolved at a concentration of 0.2 μM in 10 mM lithium cacodylate buffer (pH 7.2) with 10 mM KCl and 90 mM LiCl. […] E) Radar plot representation that summarizes the FRET-melting results (ΔT1/2 (°C)) for each ligand in the presence of HIVpro1-FT (green), HIVpro2-FT (grey), LTR4-FT (bleu), and Htel-FT (red). Data are the results of at least three independent experiments in which each data point was performed in duplicate.

[5] = molecular target: rLTR4 RNA G4; experiment: Native ESI-MS, rLTR4; type: binding, HIV-1; details: 10 μM RNA, 20 μM ligand, 100 mM ammonium acetate
Procedure: as §1, §2, §3

[6] = molecular target: Htel DNA G4 (human telomeric); experiment: Native ESI-MS, Htel; type: binding; details: 10 μM DNA, 20 μM ligand, 100 mM ammonium acetate
Procedure: as §1, §2, §3

[7] = tested on: LTR4-FT (parallel DNA G4); experiment: FRET melting assay, LTR4-FT; type: binding, HIV-1; details: ligand 1 μM, DNA 0.2 μM
Procedure: as §4, §5, §6

[8] = tested on: DK66 (DNA, duplex) CGCGAATTCGCG; experiment: native ESI-MS; details: 100 mM ammonium acetate (NH4+), no K+, apparent, 10 μM DNA, 20 μM ligand, 4 °C incubation
[9] = molecular target: DK66 DNA duplex; experiment: Native ESI-MS, DK66; type: binding; details: 10 μM DNA, 20 μM ligand, 100 mM ammonium acetate
Procedure: as §1, §2, §3

[10] = HeLaP4, 24 h, 24 h treatment, formazan quantification

COc1ccc2c(ccc3c2cc2c4ccc(OC)cc4ccc2[n+]3-c2ccc([N+](=O)[O-])cc2)c1 [DBA4]
Kd ([1]; read-out: Kd2 DK100): 142 µM | Kd ([2]; read-out: Kd1 TG4T): 5.42 µM | Kd ([2]; read-out: Kd2 TG4T): 22.7 µM | EC50 [3, 10]: ~15 µM | EC50 ([3]; HeLaP4, 24 h): 15.4 µM | ΔT1/2 HIVpro2 ([4]; +10µM ds26): 3.0±0.8 °C | ΔT1/2 HIVpro2 ([4]; No ds26): 3.8±0.3 °C and 3.8 °C | Kd ([5]; read-out: Kd1 rLTR4): 10.4 µM | Kd ([5]; read-out: Kd2 rLTR4): 0.5 µM | Kd ([5]; read-out: Kd3 rLTR4): 21.3 µM | Kd ([6]; read-out: Kd1 Htel): 11.2 µM | Kd ([6]; read-out: Kd2 Htel): 55.6 µM | ΔT1/2 LTR4 ([7]; +10µM ds26): 10±0.7 °C | ΔT1/2 LTR4 ([7]; No ds26): 11±0.5 °C and 11 °C | Kd1 ([8]; site 1 of 2): 165.13 µM | Kd ([9]; read-out: Kd1 DK66): 165 µM | Kd ([9]; read-out: Kd2 DK66): 308 µM

c1ccc(-[n+]2c3ccc4ccccc4c3cc3c4ccccc4ccc32)cc1 [DBA5]
Kd ([1]; read-out: Kd1 DK100): 40 µM | Kd ([1]; read-out: Kd2 DK100): 67.7 µM | Kd ([2]; read-out: Kd1 TG4T): 21.6 µM | Kd ([2]; read-out: Kd2 TG4T): 89.4 µM | EC50 ([3]; 24 h treatment, formazan quantification): ~15 µM | EC50 [3, 10]: 16.7 µM | ΔT1/2 HIVpro2 ([4]; +10µM ds26): 1.7±0.9 °C | ΔT1/2 HIVpro2 ([4]; No ds26): 1.9±0.1 °C | Kd ([5]; read-out: Kd1 rLTR4): 4.99 µM | Kd ([5]; read-out: Kd2 rLTR4): 10 µM | Kd ([5]; read-out: Kd3 rLTR4): 1.47 µM | Kd ([6]; read-out: Kd1 Htel): 14.5 µM | Kd ([6]; read-out: Kd2 Htel): 24.7 µM | ΔT1/2 LTR4 ([7]; +10µM ds26): 6.0±1.3 °C | Kd1 ([8]; site 1 of 2): 75.39 µM | Kd ([9]; read-out: Kd1 DK66): 75.4 µM | Kd ([9]; read-out: Kd2 DK66): 117 µM

COC(=O)c1ccc(-[n+]2c3ccc4cc(OC)ccc4c3cc3c4ccc(OC)cc4ccc32)cc1 [DBA2]
Kd ([1]; read-out: Kd1 DK100): 833 µM | Kd ([2]; read-out: Kd1 TG4T): 6.09 µM | Kd ([2]; read-out: Kd2 TG4T): 25.9 µM | EC50 [3, 10]: 2.9 µM | ΔT1/2 HIVpro2 ([4]; +10µM ds26): 2.0±0.4 °C | ΔT1/2 HIVpro2 ([4]; No ds26): 2.1±0.2 °C and 2.1 °C | Kd ([5]; read-out: Kd1 rLTR4): 10.9 µM | Kd ([5]; read-out: Kd2 rLTR4): 0.69 µM | Kd ([6]; read-out: Kd1 Htel): 41.1 µM | Kd ([6]; read-out: Kd2 Htel): 35.3 µM | ΔT1/2 LTR4 ([7]; +10µM ds26): 7.3±0.4 °C | ΔT1/2 LTR4 ([7]; No ds26): 9.4±0.3 °C | Kd1 ([8]; almost no complex detected): 711.55 µM | Kd ([9]; read-out: Kd1 DK66): 712 µM

COc1ccc(-[n+]2c3ccc4cc(OC)ccc4c3cc3c4ccc(OC)cc4ccc32)cc1 [DBA3]
Kd ([1]; read-out: Kd1 DK100): 156 µM | Kd ([1]; read-out: Kd2 DK100): 618 µM | Kd ([2]; read-out: Kd1 TG4T): 13.6 µM | Kd ([2]; read-out: Kd2 TG4T): 52.2 µM | EC50 [3, 10]: 4.3 µM | ΔT1/2 HIVpro2 ([4]; +10µM ds26): 3.8±0.6 °C | ΔT1/2 HIVpro2 ([4]; No ds26): 3.5±0.2 °C and 3.5 °C | Kd ([5]; read-out: Kd1 rLTR4): 12.2 µM | Kd ([5]; read-out: Kd2 rLTR4): 0.14 µM | Kd ([5]; read-out: Kd3 rLTR4): 31 µM | Kd ([6]; read-out: Kd1 Htel): 52.4 µM | Kd ([6]; read-out: Kd2 Htel): 27.2 µM | ΔT1/2 LTR4 ([7]; +10µM ds26): 10.2±0.3 °C | ΔT1/2 LTR4 ([7]; No ds26): 10.6±0.7 °C | Kd1 ([8]; almost no complex detected): 1071.92 µM | Kd ([9]; read-out: Kd1 DK66): 1070 µM

COc1ccc2c(ccc3c2cc2c4ccc(OC)cc4ccc2[n+]3-c2ccccc2)c1 [DBA1]
Kd ([1]; read-out: Kd1 DK100): 1030 µM | Kd ([2]; read-out: Kd1 TG4T): 14.7 µM | Kd ([2]; read-out: Kd2 TG4T): 46 µM | EC50 [3, 10]: 5.2 µM | ΔT1/2 HIVpro2 ([4]; +10µM ds26): 3.3±0.4 °C | ΔT1/2 HIVpro2 ([4]; No ds26): 4.2±1.4 °C | Kd ([5]; read-out: Kd1 rLTR4): 20.2 µM | Kd ([5]; read-out: Kd2 rLTR4): 0.55 µM | Kd ([5]; read-out: Kd3 rLTR4): 22.8 µM | Kd ([6]; read-out: Kd1 Htel): 497 µM | Kd ([6]; read-out: Kd2 Htel): 103 µM | ΔT1/2 LTR4 ([7]; +10µM ds26): 10±0.5 °C | ΔT1/2 LTR4 ([7]; No ds26): 11±0.2 °C | Kd1 ([8]; almost no complex detected): 4833.59 µM | Kd ([9]; read-out: Kd1 DK66): 4830 µM
